Laboratory results published in patent US12186283B2, “Bismuth-thiol compositions and methods of use” (Microbion Corporation, priority 2018, dated 2025).
Several values for one entry are separate records, joined by “and”; a condition that tells them apart may be missing. Identical values can stand only once.

Assays:
[1] = tested on: M. abscessus / MABSC biofilms; format: cell-based, Mycobacterium abscessus complex; settings: AMT0130-8, MABSC CF-isolate
Pseudomonas aeruginosa = assay: Broth microdilution MIC (Example 11); format: cell-based; settings: P. aeruginosa MMX 103 (ATCC 27853); QC
[2] = tested on: Achromobacter spp. biofilm; assay: Activity against biofilms; settings: tested up to 250 μg/mL
[3] = tested on: Enterococcus spp. (E. faecalis, E. faecium); assay: Broth microdilution MIC (Example 11); format: cell-based; settings: enterococci incl. vancomycin-resistant E. faecalis and E. faecium
[4] = Hematology after face-mask inhalation in beagle dogs; format: in vivo; settings: inhalation Day 0 and 7, animal and Avg lines, samplings not labelled
Procedure: The objective of the study is to determine the maximum tolerated dose (MTD) or maximum feasible dose (MFD) of inhaled bismuth ethanedithiol (BisEDT) after face-mask inhalation exposure (up to 60 min of exposure) in male and female beagle dogs. Animals will be monitored for up to 14 days following the first day of exposure and blood will be collected at predetermined timepoints to analyze the pharmacokinetics of BisEDT. In addition, a coagulation panel will be conducted prior to necropsy. At the conclusion of the study animals will be euthanized and undergo necropsy during which the respiratory tract will be harvested for bioanalytical and histopathological analysis. Results obtained will inform a follow up repeated dose GLP study. This test article is currently being developed as a novel formulation of a broad spectrum antimicrobial/antibiofilm agent, indicated for the treatment of lung infections in patients with cystic fibrosis.
Once adequately conditioned to the restraint device and face-masks, the animals are individually exposed to the test article aerosols. Animals receive a single face-mask inhalation exposure in a ramp study design to test article aerosols for up to 60 min. Animal observations during and post exposure determine the tolerance of inhaled BisEDT aerosols.
Group 1 (vehicle) are exposed to a vehicle atmosphere for 30 minutes. Group 2 (50 μg/kg) are exposed to BisEDT for 30 minutes. Target concentrations and exposure durations for Groups 3-5 are based on the presence of any toxicity via clinical observations or gross necropsy findings. In each of Groups 3-5, if no adverse clinical signs of toxicity are observed, the next groups' exposure will be conducted at a higher target dose. If adverse clinical signs of toxicity are observed, the next groups' exposure will be conducted at a lower target dose. This approach is repeated for all BisEDT doses. The final documented exposure duration is the maximum tolerated dose or the maximum feasible dose.
Blood are collected for pharmacokinetic (PK) analysis prior to exposure, then at 4 hr (±5 min) post exposure, and again on Day 1, Day 2, Day 7 (pre- and 4 hr (±5 min)-post exposure), Day 8, Day 9, Day 10, Day 11, Day 12, Day 13, and Day 14. A total of 0.25 mL is collected at each timepoint. No PK blood is collected from the vehicle control (Group 1) animals; only animals exposed to BisEDT have blood collected for PK analysis. Collected samples are flash frozen without processing for shipment to Medpace for bioanalytical analysis. Additional blood is collected from all animals in all groups for hematology (1 mL) and clinical chemistry (1 mL) at baseline, Day 7 (pre-exposure), and again at euthanasia. Blood (2-2 mL) is collected from all animals at necropsy for coagulation analysis (d-Dimer, fibrinogen, PT, and PTT).
For hematology analyses, whole blood (1 ml) will be collected with vacutainers containing K3EDTA as an anticoagulant.
Hematology samples are analyzed by automated (ADVIA™ 120 Hematology System, Siemens Medical Solutions Diagnostics, Tarrytown, NY) analyses. Disposition will be recorded on the sample processing form.

P. aeruginosa = settings: control strain ATCC 27853 P. aeruginosa; cited from earlier work
[5] = tested on: Burkholderia cepacia complex; assay: Checkerboard FIC assay, BisEDT with CF agents (Example 10); format: cell-based, Burkholderia spp.; settings: agent alone, as observed during FIC testing
[6] = dogs Group 2 (target 50 μg/kg; lung deposited 55-56 ug/kg)

In the case of `CC(S)C(C)S.[Bi]` (centres unmarked) [BisBDT, bismuth-2,3-butanedithiol], the “reduction in biofilm cell viability” value [1] is reported as “only very modest reductions in biofilm cell viability”, the MIC (Pseudomonas aeruginosa) is reported as 1 µg/mL and the “reduction in viable biofilm cells” value [2] is reported as 5 log. For the same compound, the “MIC values (range across isolates)” value [3] was 0.25 to 1 µg/mL.
In the case of `C1C[S][Bi]([S]CC[S][Bi]2[S]CC[S]2)[S]1` [BisEDT, bismuth-1,2-ethanedithiol], the HGB [4, 6] is reported as 15.6 g/dL and 15.0 g/dL and 14.2 g/dL and 16.4 g/dL and 14.3 g/dL, the LUC [4, 6] is reported as 0.01 ^3/uL and 0.02 ^3/uL and the MCH [4, 6] is reported as 22.8 pg and 23.2 pg and 22.7 pg and 22.3 pg and 21.9 pg. For the same compound, the MCHC [4, 6] was 34.1 g/dL and 34.9 g/dL and 33.4 g/dL and 34.4 g/dL and 33.2 g/dL, the MONO [4, 6] was 0.63 ^3/uL and 0.67 ^3/uL and 0.53 ^3/uL and 0.50 ^3/uL and 0.51 ^3/uL and the LUC ([4]; dogs Group 4 (lung deposited 176-197 ug/kg)) was 0.01 ^3/uL and 0.02 ^3/uL. The “Expected MIC: acceptable range” value (P. aeruginosa) was 0.5 to 4 µg/mL and the “Expected MIC: goal” value (P. aeruginosa) was 1 to 2 µg/mL.
For `C[C@@H](O)[C@H]1C(=O)N2C(C(=O)O)=C(S[C@@H]3CN[C@H](C(=O)N(C)C)C3)[C@H](C)[C@H]12` [MEM], the MIC ([5]; B. cenocepacia isolate 0548) was 4 µg/mL, the MIC ([5]; B. cenocepacia isolate 0813) was 2 µg/mL and the MIC ([5]; B. cepacia isolate 0546) was 4 µg/mL. For the same compound, the MIC ([5]; B. cepacia isolate 1793) was 4 µg/mL and the MIC ([5]; B. multivorans isolate 1795) was 4 µg/mL.
